Literature values in US20160120180A1, “COMPOSITIONS AND METHODS FOR CONTROLLING REPLANT DISEASES OF PERENNIAL CROPS” (Adjuvants Unlimited LLC, priority 2014, published 2016).

Assays:
nematodes = conditions: soil-applied treatment on bermudagrass
Meloidogyne incognita [1] = conditions: sprayed on plant foliage as a dilute emulsion
test plants = conditions: emulsion applied to soil at 2 and 4 grams of fatty acid per square foot
Meloidogyne incognita [2] = conditions: in vitro

## C=CCCCCCCCCC(=O)O [undecylenic acid]
nematodes
  Nematode number: reduction in nematode number
Meloidogyne incognita [1]
  Systemic effects on nematodes: no systemic effects
Test plants
  Effect on test plants (phytotoxicity): the test plants died
Meloidogyne incognita [2]
  Effect on isolated egg masses: destroyed isolated egg masses
